From ChEMBL document CHEMBL4311960, “Two optimized antimicrobial peptides with therapeutic potential for clinical antibiotic-resistant Staphylococcus aureus” (Eur J Med Chem, 2019)
Calls of active or inactive are those of the source. The rule behind the calls is not given here.

Legend:
Staphylococcus aureus [1] = experiment: Antibacterial activity against Staphylococcus aureus ATCC 29213 assessed as reduction in bacterial growth at MIC measured after 15 passages; type: functional
[2] = Stability in mouse plasma at 20 uM incubated for 12 hrs by HPLC-MS analysis; type: ADME, cell-free
Staphylococcus aureus [3] = experiment: Disruption of membrane integrity in Staphylococcus aureus ATCC 25923 assessed as perforation of cell membrane at MIC incubated for 24 hrs by scanning electron microscopy; type: functional, organism-based
Streptococcus sanguinis = experiment: Antibacterial activity against Streptococcus sanguinis ATCC 10556 assessed as reduction in bacterial growth incubated for 24 hrs by serial dilution method; type: functional; details: ATCC 10556, 24 h, read-out: MIC
Staphylococcus aureus [4] = experiment: Inhibition of biofilm formation in Staphylococcus aureus ATCC 25923 assessed as downregulation of mecA gene at MIC incubated for 1 hr by qRT-PCR; type: functional, organism-based
Staphylococcus aureus [5] = experiment: Inhibition of biofilm formation in Staphylococcus aureus ATCC 29213 at MIC incubated for 24 hrs by scanning electron microscopy; type: functional, organism-based
[6] = Hemolytic activity in mouse Erythrocyte at 640 ug/ml incubated for 1 hr relative to control; type: ADME, cell-based; details: mouse erythrocytes, read-out: %max
Staphylococcus aureus [7] = experiment: Inhibition of biofilm formation in methicillin-resistant Staphylococcus aureus ATCC 19498 assessed as downregulation of […] gene at MIC incubated for 1 hr by qRT-PCR; type: functional, organism-based
Erythrocyte = experiment: Hemolytic activity in mouse Erythrocyte assessed as HC10 incubated for 1 hr; type: ADME, cell-based
Staphylococcus aureus [8] = experiment: Inhibition of biofilm formation in methicillin-resistant Staphylococcus aureus ATCC 19498 assessed as downregulation of hld gene at MIC incubated for 1 hr by qRT-PCR; type: functional, organism-based
Candida albicans = experiment: Antifungal activity against Candida albicans ATCC 5314 assessed as reduction in fungal growth incubated for 24 hrs by serial dilution method; type: functional; details: ATCC 5314, 24 h, read-out: MIC
Staphylococcus aureus [9] = experiment: Antibacterial activity against methicillin-resistant Staphylococcus aureus ATCC 18466 assessed as reduction in bacterial growth incubated for 24 hrs by serial dilution method; type: functional; details: ATCC 18466, 24 h, read-out: MIC
Staphylococcus aureus [10] = experiment: Disruption of membrane integrity in Staphylococcus aureus ATCC 29213 assessed as shrinking of cell membrane at MIC incubated for 24 hrs by scanning electron microscopy; type: functional, organism-based
Staphylococcus aureus [11] = experiment: Inhibition of biofilm formation in methicillin-resistant Staphylococcus aureus ATCC 18466 assessed as downregulation of mecA gene at MIC incubated for 1 hr by qRT-PCR; type: functional, organism-based
Staphylococcus aureus [12] = experiment: Inhibition of biofilm formation in methicillin-resistant Staphylococcus aureus ATCC 18466 assessed as downregulation of spa gene at MIC incubated for 1 hr by qRT-PCR; type: functional, organism-based
Staphylococcus aureus [13] = experiment: Disruption of membrane integrity in methicillin-resistant Staphylococcus aureus ATCC 18466 assessed as extravasation of cytoplasmic content at MIC incubated for 24 hrs by scanning electron microscopy; type: functional, organism-based
Staphylococcus aureus [14] = experiment: Disruption of membrane integrity in methicillin-resistant Staphylococcus aureus ATCC 18466 assessed as shrinking of cell membrane at MIC incubated for 24 hrs by scanning electron microscopy; type: functional, organism-based
Staphylococcus aureus [15] = experiment: Disruption of membrane integrity in methicillin-resistant Staphylococcus aureus ATCC 19498 assessed as cell membrane damage at MIC incubated for 24 hrs by scanning electron microscopy; type: functional, organism-based
Staphylococcus aureus [16] = experiment: Inhibition of biofilm formation in Staphylococcus aureus ATCC 25923 assessed as downregulation of spa gene at MIC incubated for 1 hr by qRT-PCR; type: functional, organism-based
Staphylococcus aureus [17] = experiment: Disruption of membrane integrity in methicillin-resistant Staphylococcus aureus ATCC 19498 assessed as decrease in cell volume at MIC incubated for 24 hrs by scanning electron microscopy; type: functional, organism-based
Staphylococcus aureus [18] = experiment: Disruption of membrane integrity in methicillin-resistant Staphylococcus aureus ATCC 18466 assessed as decrease in cell volume at MIC incubated for 24 hrs by scanning electron microscopy; type: functional, organism-based
Staphylococcus aureus [19] = experiment: Disruption of membrane integrity in methicillin-resistant Staphylococcus aureus ATCC 18466 assessed as invagination of cell membrane at MIC incubated for 24 hrs by scanning electron microscopy; type: functional, organism-based
Staphylococcus aureus [20] = experiment: Disruption of membrane integrity in Staphylococcus aureus ATCC 25923 assessed as shrinking of cell membrane at MIC incubated for 24 hrs by scanning electron microscopy; type: functional, organism-based
Staphylococcus aureus [21] = experiment: Inhibition of biofilm formation in Staphylococcus aureus ATCC 29213 assessed as downregulation of hld gene at MIC incubated for 1 hr by qRT-PCR; type: functional, organism-based
Staphylococcus aureus [22] = experiment: Disruption of membrane integrity in Staphylococcus aureus ATCC 29213 assessed as cell membrane damage at MIC incubated for 24 hrs by scanning electron microscopy; type: functional, organism-based
[23] = Stability in MRSA supernatant at 20 uM incubated for 24 hrs by HPLC-MS analysis; type: physicochemical
Staphylococcus aureus [24] = experiment: Inhibition of biofilm formation in Staphylococcus aureus ATCC 25923 assessed as downregulation of […] gene at MIC incubated for 1 hr by qRT-PCR; type: functional, organism-based
[25] = Stability in mouse plasma at 20 uM incubated for 24 hrs by HPLC-MS analysis; type: ADME, cell-free
Staphylococcus aureus [26] = experiment: Inhibition of biofilm formation in methicillin-resistant Staphylococcus aureus ATCC 19498 at MIC incubated for 24 hrs by scanning electron microscopy; type: functional, organism-based
[27] = Cytotoxicity against human HEK293T cells assessed as cell viability at 5 to 640 ug/ml incubated for 48 hrs by MTT assay relative to control; type: cell-based, HEK-293T; details: read-out: Activity
Staphylococcus aureus [28] = experiment: Disruption of membrane integrity in Staphylococcus aureus ATCC 29213 assessed as invagination of cell membrane at MIC incubated for 24 hrs by scanning electron microscopy; type: functional, organism-based
Staphylococcus aureus [29] = experiment: Disruption of membrane integrity in Staphylococcus aureus ATCC 25923 assessed as decrease in cell volume at MIC incubated for 24 hrs by scanning electron microscopy; type: functional, organism-based
Staphylococcus aureus [30] = experiment: Inhibition of biofilm formation in Staphylococcus aureus ATCC 25923 assessed as downregulation of hld gene at MIC incubated for 1 hr by qRT-PCR; type: functional, organism-based
Staphylococcus aureus [31] = experiment: Disruption of membrane integrity in Staphylococcus aureus ATCC 29213 assessed as perforation of cell membrane at MIC incubated for 24 hrs by scanning electron microscopy; type: functional, organism-based
Staphylococcus aureus [32] = experiment: Disruption of membrane integrity in Staphylococcus aureus ATCC 25923 assessed as extravasation of cytoplasmic content at MIC incubated for 24 hrs by scanning electron microscopy; type: functional, organism-based
Staphylococcus aureus [33] = experiment: Antibacterial activity against Staphylococcus aureus ATCC 25923 assessed as reduction in bacterial growth incubated for 24 hrs by serial dilution method; type: functional; details: ATCC 25923, 24 h, read-out: MIC
Staphylococcus aureus [34] = experiment: Disruption of membrane integrity in methicillin-resistant Staphylococcus aureus ATCC 18466 assessed as perforation of cell membrane at MIC incubated for 24 hrs by scanning electron microscopy; type: functional, organism-based
Staphylococcus aureus [35] = experiment: Disruption of membrane integrity in methicillin-resistant Staphylococcus aureus ATCC 18466 assessed as cell membrane damage at MIC incubated for 24 hrs by scanning electron microscopy; type: functional, organism-based
Staphylococcus aureus [36] = experiment: Disruption of membrane integrity in methicillin-resistant Staphylococcus aureus ATCC 19498 assessed as perforation of cell membrane at MIC incubated for 24 hrs by scanning electron microscopy; type: functional, organism-based

Row | Substance | Activity (Staphylococcus aureus [1]) | Stability [2] | Activity (Staphylococcus aureus [3]) | MIC (Streptococcus sanguinis) | inhibition (Staphylococcus aureus [4]) | inhibition (Staphylococcus aureus [5]) | hemolysis at 1 h, 640 ug/ml [6] | inhibition (Staphylococcus aureus [7]) | HC10 (Erythrocyte) | inhibition (Staphylococcus aureus [8]) | MIC (Candida albicans) | MIC (Staphylococcus aureus [9]) | Activity (Staphylococcus aureus [10]) | inhibition (Staphylococcus aureus [11]) | inhibition (Staphylococcus aureus [12]) | Activity (Staphylococcus aureus [13]) | Activity (Staphylococcus aureus [14]) | Activity (Staphylococcus aureus [15]) | inhibition (Staphylococcus aureus [16]) | Activity (Staphylococcus aureus [17]) | further results
1 | H-SYERKINRHFKTLKKNLKKK-NH2 | Active | Stable | Active | < 64 µg/mL | inactive | Active | 7.06% | Active | > 640 µg/mL | Active | 64 µg/mL | 16 µg/mL | Active | inactive | Active | Active | Active | Active | Active | Active | Activity (Staphylococcus aureus [18]): Active; Activity (Staphylococcus aureus [19]): Active; Activity (Staphylococcus aureus [20]): Active; inhibition (Staphylococcus aureus [21]): Active; Activity (Staphylococcus aureus [22]): Active; Stability [23]: Stable; inhibition (Staphylococcus aureus [24]): Active; Stability [25]: Unstable; inhibition (Staphylococcus aureus [26]): Active; viability at 48 h [27]: 70 to 80%; Activity (Staphylococcus aureus [28]): Active; Activity (Staphylococcus aureus [29]): Active; inhibition (Staphylococcus aureus [30]): Active; Activity (Staphylococcus aureus [31]): Active; Activity (Staphylococcus aureus [32]): Active; MIC (Staphylococcus aureus [33]): 32 µg/mL; Activity (Staphylococcus aureus [34]): Active; Activity (Staphylococcus aureus [35]): Active; Activity (Staphylococcus aureus [36]): Active
2 | H-YIRKIRRFFKKLKKILKK-NH2 | Active | Stable | Active | < 64 µg/mL | inactive | Active | 10.3% | Active | 640 µg/mL | Active | 32 µg/mL | 8 µg/mL | Active | inactive | Active | Active | Active | Active | Active | Active | Activity (Staphylococcus aureus [18]): Active; Activity (Staphylococcus aureus [19]): Active; Activity (Staphylococcus aureus [20]): Active; inhibition (Staphylococcus aureus [21]): Active; Activity (Staphylococcus aureus [22]): Active; Stability [23]: Stable; inhibition (Staphylococcus aureus [24]): Active; Stability [25]: Unstable; inhibition (Staphylococcus aureus [26]): Active; viability at 48 h [27]: 70 to 80%; Activity (Staphylococcus aureus [28]): Active; Activity (Staphylococcus aureus [29]): Active; inhibition (Staphylococcus aureus [30]): Active; Activity (Staphylococcus aureus [31]): Active; Activity (Staphylococcus aureus [32]): Active; MIC (Staphylococcus aureus [33]): 8 µg/mL; Activity (Staphylococcus aureus [34]): Active; Activity (Staphylococcus aureus [35]): Active; Activity (Staphylococcus aureus [36]): Active
